Tests used:
[1] = system: Entamoeba histolytica; experiment: In vitro growth inhibition against Entamoeba histolytica; type: functional, organism-based
[2] = system: Plasmodium falciparum; experiment: microbe, parasite or virus in culture
Description: In vitro growth inhibition against Plasmodium falciparum

[3] = in vitro; details: human, KB cells (nasopharyngeal carcinoma)
Description: Toxicity evaluated against human nasopharyngeal carcinoma KB cell line

[4] = Therapeutic index was expressed as ratio of LD50 for KB cell line to IC50 against Plasmodium falciparum; type: cell-based; details: human, KB cells; read-out: TI
[5] = Therapeutic index was expressed as ratio of LD50 for KB cell line to IC50 against Entamoeba histolytica; type: cell-based; details: human, KB cells; read-out: TI

Structure (SMILES)	IC50 [1] [µM]	IC50 [2] [µM]	CC50 [3] [µM]	selectivity ratio [4]	selectivity ratio [5]
O=P(O)(O)C(Nc1nccc2ccccc12)P(=O)(O)O	> 200	50.4	673		
Cc1csc(NC(P(=O)(O)O)P(=O)(O)O)n1	> 200	> 200	150		
CCCCC(O)(P(=O)(O)O)P(=O)(O)O	> 200		> 1040	> 18.4	
CC(C)(C)c1cc(NC(P(=O)(O)O)P(=O)(O)O)cc(C(C)(C)C)c1	19.2	> 200	634		33
O=P(O)(O)C(Nc1cccnc1)P(=O)(O)O	60	> 200	782		13
O=P(O)(O)C(Nc1ccc(I)cn1)P(=O)(O)O	39.5	> 200	466		11.8
O=P(O)(O)C(NCCCc1ccccc1)P(=O)(O)O	15.6	> 200	> 970		> 62.2
CCCCOc1ccc(NC(P(=O)(O)O)P(=O)(O)O)cc1	3.98	> 200	210		52.7
O=P(O)(O)C(N1CCCCC1)P(=O)(O)O	> 200	> 200	> 1090		
O=C(O)c1cn(C2CC2)c2cc(N3CCN(CC(P(=O)(O)O)P(=O)(O)O)CC3)c(F)cc2c1=O	> 200	> 200	> 568		
Cc1cc(C)nc(NC(P(=O)(O)O)P(=O)(O)O)c1	177	> 200	633		3.58
O=P(O)(O)C(Nc1ncccc1OCc1ccccc1)P(=O)(O)O	> 200	> 200	> 764		
O=P(O)(O)C(Nc1ccc(Cl)cn1)P(=O)(O)O	87	10.6	> 991		
CCc1cccc(NC(P(=O)(O)O)P(=O)(O)O)c1	> 200	> 200	> 1020		
O=P(O)(O)C(O)(CSc1ccncc1)P(=O)(O)O	> 200		> 746	> 4.72	
O=P(O)(O)C(O)(CCNCCCCc1ccccc1)P(=O)(O)O	20.5	> 200	> 727		> 35.5
CCCCCCCCCCCCCCCCCC(O)(P(=O)(O)O)P(=O)(O)O	> 200	> 200	< 0.65		
Cc1cccc(NC(P(=O)(O)O)P(=O)(O)O)n1	64	> 200	18.6		
CCC(C)CNC(P(=O)(O)O)P(=O)(O)O (stereo unspecified)	135	> 200	394		2.92
O=P(O)(O)C(N1CCc2ccccc2C1)P(=O)(O)O	71		> 922		> 13
O=P(O)(O)C(Nc1ccc(Cl)nc1)P(=O)(O)O	21.7	> 200	> 992		> 45.7
O=P(O)(O)C(N1CCC(O)CC1)P(=O)(O)O	> 200	> 200	> 1010		
O=P(O)(O)C(Nc1cc(Cl)cc(Cl)c1)P(=O)(O)O [(3,5-DICHLOROPHENYLAMINO)METHYLENEDIPHOSPHONIC ACID]	> 200	> 200	314		

Structure (SMILES)	IC50 [1] [µM]	IC50 [2] [µM]	CC50 [3] [µM]	selectivity ratio [4]	selectivity ratio [5]
O=P(O)(O)C(NCCc1ccc(O)cc1)P(=O)(O)O [(4-HYDROXYPHENETHYLAMINO)METHYLENEDIPHOSPHONIC ACID]	> 200	> 200	99.8		
CCCCN(CC)C(P(=O)(O)O)P(=O)(O)O [(BUTYL(ETHYL)AMINO)METHYLENEDIPHOSPHONIC ACID]	47.3	> 200	> 1060		> 22.3
CCCCNC(P(=O)(O)O)P(=O)(O)O [(BUTYLAMINO)METHYLENEDIPHOSPHONIC ACID]	> 200	> 200	212		
O=P(O)(O)C(NC1CCC1)P(=O)(O)O [(CYCLOBUTYLAMINO)METHYLENEDIPHOSPHONIC ACID]	> 200	> 200	260		
O=P(O)(O)C(NC1CCCCCCC1)P(=O)(O)O [(CYCLOOCTYLAMINO)METHYLENEDIPHOSPHONIC ACID]	15.5	> 200	354		22.9
O=P(O)(O)C(NC1CCCC1)P(=O)(O)O [(CYCLOPENTYLAMINO)METHYLENEDIPHOSPHONIC ACID]	35.9	> 200	629		17.5
O=P(O)(O)C(NC1CC1)P(=O)(O)O [(CYCLOPROPYLAMINO)METHYLENEDIPHOSPHONIC ACID]	113	> 200	246		2.18
O=P(O)(O)C(N(C1CCCCC1)C1CCCCC1)P(=O)(O)O [(DICYCLOHEXYLAMINO)METHYLENEDIPHOSPHONIC ACID]	> 200	> 200	> 844		
CC(C)N(C(C)C)C(P(=O)(O)O)P(=O)(O)O [(DIISOPROPYLAMINO)METHYLENEDIPHOSPHONIC ACID]	194	> 200	852		4.39
CCCN(CCC)C(P(=O)(O)O)P(=O)(O)O [(DIPROPYLAMINO)METHYLENEDIPHOSPHONIC ACID]	> 200	> 200	322		
CCCCCCNC(P(=O)(O)O)P(=O)(O)O [(HEXYLAMINO)METHYLENEDIPHOSPHONIC ACID]	> 200	56.5	> 966	> 17.1	
CC(C)CNC(P(=O)(O)O)P(=O)(O)O [(ISOBUTYLAMINO)METHYLENEDIPHOSPHONIC ACID]	> 200	> 200	50.5		
CC(C)CCNC(P(=O)(O)O)P(=O)(O)O [(ISOPENTYLAMINO)METHYLENEDIPHOSPHONIC ACID]	36.9	> 200	480		13
CCCCCNC(P(=O)(O)O)P(=O)(O)O [(PENTYLAMINO)METHYLENEDIPHOSPHONIC ACID]	> 200	4.8	> 1150	> 240	
CCCNC(P(=O)(O)O)P(=O)(O)O [(PROPYLAMINO)METHYLENEDIPHOSPHONIC ACID]	> 200	> 200	499		
O=P(O)(O)C(O)(C1CCC1)P(=O)(O)O [CYCLOBUTYL(HYDROXY)METHYLENEDIPHOSPHONIC ACID]	> 200	> 200	> 1220		
O=P(O)(O)C(O)(C1CCCCC1)P(=O)(O)O [CYCLOHEXYL(HYDROXY)METHYLENEDIPHOSPHONIC ACID]	> 200	> 200	1090		
O=P(O)(O)C(O)(C1CC1)P(=O)(O)O [CYCLOPROPYL(HYDROXY)METHYLENEDIPHOSPHONIC ACID]	> 200	> 200	> 1240		
O=P(O)(O)C(NC1CCCCCC1)P(=O)(O)O [INCADRONIC ACID]	> 200	> 200	166		
O=P(O)(O)C(N1CCOCC1)P(=O)(O)O [MORPHOLINOMETHYLENEDIPHOSPHONIC ACID]	> 200	18.4	964	52.4	
O=P(O)(O)C(N1CCCCCC1)P(=O)(O)O [N-(HEXAMETHYLENEIMINO)METHYLENEBISPHOSPHONIC ACID]	> 200	> 200	> 1100		
O=P(O)(O)C(N1CCSCC1)P(=O)(O)O [THIOMORPHOLINOMETHYLENEDIPHOSPHONIC ACID]	> 200	> 200	> 1120		
O=P(O)(O)C(O)(Cn1ccnc1)P(=O)(O)O [ZOLEDRONIC ACID]	12	167	63.7		
